Values quoted from earlier work in patent US11491230B2, “Medication” (priority 2015, dated 2022).

Legend:
[1] = test system: estrogen receptor-positive and estrogen receptor-negative breast cancer cell lines; details: inducing apoptosis in a concentration-dependent manner
[2] = test system: nontumorigenic mammary cells
[3] = test system: cannabinoid receptors
[4] = test system: PC-3; details: PC-3 (Ruiz et al. 1999)
[5] = biological target: T1, androgen receptor in the prostate gland (Homo sapiens, UniProt P10275)
T1 construct: host or cells: prostate gland
T1 sequence (P10275 1-920): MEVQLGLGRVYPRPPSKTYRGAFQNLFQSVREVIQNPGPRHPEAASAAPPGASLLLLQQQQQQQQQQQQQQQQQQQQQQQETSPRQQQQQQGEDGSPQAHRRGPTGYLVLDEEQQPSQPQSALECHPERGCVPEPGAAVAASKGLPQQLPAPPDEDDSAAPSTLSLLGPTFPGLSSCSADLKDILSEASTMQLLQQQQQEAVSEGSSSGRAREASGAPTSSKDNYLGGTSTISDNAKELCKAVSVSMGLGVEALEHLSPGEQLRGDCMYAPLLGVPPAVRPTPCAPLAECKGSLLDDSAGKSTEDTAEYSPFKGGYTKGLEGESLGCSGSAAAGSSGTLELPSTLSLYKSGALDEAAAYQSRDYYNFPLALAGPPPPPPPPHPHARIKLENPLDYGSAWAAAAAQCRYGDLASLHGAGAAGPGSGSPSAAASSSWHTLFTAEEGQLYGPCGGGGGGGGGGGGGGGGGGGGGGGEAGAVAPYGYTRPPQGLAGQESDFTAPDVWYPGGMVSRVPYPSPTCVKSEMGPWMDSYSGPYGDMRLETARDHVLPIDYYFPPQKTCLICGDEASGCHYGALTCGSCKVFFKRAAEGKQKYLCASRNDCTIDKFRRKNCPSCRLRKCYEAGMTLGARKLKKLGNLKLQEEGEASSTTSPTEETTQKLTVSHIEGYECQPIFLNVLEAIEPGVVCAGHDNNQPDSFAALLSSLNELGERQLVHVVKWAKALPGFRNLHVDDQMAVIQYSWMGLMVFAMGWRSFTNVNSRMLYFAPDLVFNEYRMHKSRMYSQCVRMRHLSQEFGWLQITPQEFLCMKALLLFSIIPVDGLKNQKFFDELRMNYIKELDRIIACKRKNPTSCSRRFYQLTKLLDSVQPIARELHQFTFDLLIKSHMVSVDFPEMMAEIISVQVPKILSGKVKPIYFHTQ

[6] = biological target: CB1 receptor (Homo sapiens, UniProt P21554)
Sequence of CB1 receptor (P21554 whole entry): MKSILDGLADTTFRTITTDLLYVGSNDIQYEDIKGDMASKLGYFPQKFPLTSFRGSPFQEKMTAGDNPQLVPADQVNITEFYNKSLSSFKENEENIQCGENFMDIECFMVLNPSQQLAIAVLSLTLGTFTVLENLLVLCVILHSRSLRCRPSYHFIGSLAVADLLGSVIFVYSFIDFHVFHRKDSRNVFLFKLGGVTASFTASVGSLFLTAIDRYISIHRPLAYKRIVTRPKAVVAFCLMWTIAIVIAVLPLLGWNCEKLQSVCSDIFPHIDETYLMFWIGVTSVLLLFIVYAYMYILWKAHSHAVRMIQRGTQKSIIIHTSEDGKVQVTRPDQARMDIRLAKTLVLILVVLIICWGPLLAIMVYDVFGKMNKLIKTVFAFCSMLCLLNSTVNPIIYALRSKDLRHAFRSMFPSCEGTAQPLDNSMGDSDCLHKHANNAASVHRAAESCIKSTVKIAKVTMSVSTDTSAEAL

[7] = not given; remark: listed apart in the source

## C=C(C)[C@@H]1CCC(C)=C[C@H]1c1c(O)cc(CCCCC)cc1O [CBD, Cannabidiol]
[1]
  survival of breast cancer cell lines: inhibited the survival
[2]
  effect on nontumorigenic mammary cells: little effect
[3]
  affinity to cannabinoid receptors: low affinity

## CCCCCc1cc(O)c2c(c1)OC(C)(C)[C@@H]1CCC(C)=C[C@@H]21 [THC, Tetrahydrocannabinol]
cold-pressor test after administration, dronabinol oral capsules 10 mg or 20 mg
  pain sensitivity: decreased pain sensitivity
Dronabinol versus smoked marijuana
  duration of effect: lasted longer than smoked marijuana
On the average
  time until pain reduction effects were felt after administration: 180 min
[4]
  apoptosis: causes apoptosis
[5]
  specific binding of dihydroxytestosterone to the androgen receptor: inhibits specific binding

## CCCc1cc(O)c2c(c1)OC(C)(C)[C@@H]1CCC(C)=C[C@@H]21 [THCV, Tetrahydrocannabivarin]
[6]
  activity at CB1 receptor: CB1 receptor antagonist

## vitamin E
[7]; pre-menopausal women with a family history of breast cancer, highest quantity of vitamin E consumed
  reduction in breast cancer incidence: 43%
[7]; women without a family history of breast cancer
  breast cancer risk reduction: 16%
